# According to patent publication US20080113938A1, “ACCELERATOR FOR MINERAL ABSORPTION AND USE THEREOF” (KABUSHIKI KAISHA HAYASHIBARA SEIBUTSU KAGAKU KENKYUJO, priority 2003, published 2008):
# Marks after values point to notes of the source that are not given here.
# Assays:
# femur = assay: Dry weight, ash, calcium, magnesium and phosphorus of the femur of rats; type: in vivo, Wister rats
# Excerpt: Forty of Wister rats weighing 110 to 120 g (five-weeks aged male, commercialized by Charles River Japan Inc., Yokohama, Japan) were bred with a feed containing ingredients (%) shown in Table 1 for one week in order to be familiarized. The familiarized rats were randomly divided into four groups with ten rats each. Each group was experimentally bred for eight weeks with either a feed without cyclic tetrasaccharide shown in Table 1 (hereinafter, it is called as “basic feed”), or another feed of basic feed supplemented with 1%, 2% or 5% on a dry solid basis, of cyclic tetrasaccharide in a crystalline anhydrous powder form with a purity of 99.5%, prepared in the following Example A-3. These basic feed and three kinds of feeds with cyclic tetrasaccharide were prepared to contain 44.75% of the total amount of cyclic tetrasaccharide and corn starch in each feed. From one week before the end of the breeding test, in order to determine the metabolism of calcium, magnesium, iron, sodium, potassium and phosphorus (hereinafter, may be called “minerals” in all), rats in the all groups were fed with the four types of feeds supplemented with 0.5% of chromium oxide as a non-absorbed marker for the minerals. The rats were bred at 25° C. in a manner of freely allowing to take feeds and water under a condition of 12 hours regular interval between of light and shade. After completion of experimental breeding, all rats were individually weighed to calculate the average of weight and further calculate the rate of increased weight for each group.
# Two days before the end of the breeding test, rats were placed into a gauge for measuring metabolism to collect their excrement in two days. The resulting excrement was subjected to the measurement of the contents of cyclic tetrasaccharide, each mineral, and chromium. After the breeding test, the rats were anatomized in an anesthetized condition to take out their alimentary canals including jejunum, intestinum ileum, appendix and colon/rectum. After the resulting alimentary canals were weighed, their contents were also weighed and subjected to the measurement of the amount of cyclic tetrasaccharide, minerals and chromium. The rats, which had been taken out their alimentary canals, were dislocated at their cervical vertebrae and taken out their femurs from right legs. The resulting femurs were subjected to the measurement of the amount of ashes, calcium, magnesium and phosphorus. The following(s) explain the methods of quantitative analysis of cyclic tetrasaccharide and the methods of measurement of minerals and chromium.
# Two grams of a feed was preciously weighed in a porcelain crucible, heated to carbonize, and heated at 600° C. to incinerate. After weighed, the resulting test samples were admixed with hydrochloric acid in a precious analysis grade (concentration of 20%, commercialized by Wako Pure Chemicals, Co., Ltd., Osaka, Japan) to give a final concentration of 1%. They were subjected to atomic absorption spectrometry (“Zeeman5100™”, commercialized by PerkinElmer); in the case of measurement of chromium, they were subjected to a flameless type one. In the case of measurement of phosphorus, they were subjected to usual molybdenum blue absorptiometry. On the other hand, 0.1 g of each of the contents of jejunum, intestinum ileum, appendix, colon/rectum, and excrement was subjected to wet-type incineration to prepare test samples similarly as in the above case of feed, and the test samples were quantified. The right femurs taken out from the anatomized rats were dried at 105° C. for 15 hours and measured as a dry weight. The resulting dried femurs were precisely weighed in a porcelain crucible, and incinerated similarly as in the case of the feed. The resultants were weighed and quantified for calcium, magnesium and phosphorus.
# [1] = tested on: reversed canal sac of jejunum; assay: Calcium absorption in reversed canal sac, jejunum; type: cell-based, Wister rats
# Description: (§1) Experiment 1 confirmed that cyclic tetrasaccharide promotes mineral absorption in alimentary canal of rat concretely in intestinum ileum or its upper alimentary canal. The following experiment was carried out in order to determine a part of alimentary canal, cyclic tetrasaccharide acts on to promote mineral absorption. Twenty heads of Wister rats (nine week aged male, commercialized by Charlesriver Corporation, Kanagawa, Japan) were bred for three days with a usual solid feed for rats. Under the anesthetization with ether, alimentary canal was taken out from each rat which had been bled from a jugular vein and treated by abdominal operation. Each alimentary canal was divided into jejunum, intestinum ileum and colon/rectum and washed with physiological saline to remove the content. The resulting jejunum specimen, intestinum ileum specimen or colon/rectum specimen was cut off to prepare each midsection sized with about 10 cm in length. The resulting midsection of each specimen was reversed using a glass rod and immersed in a physiological saline babbled with gas consisting of 95% oxygen and 5% carbon dioxide. The resultant was cut into pieces sized with 5 cm in length and each piece was tied with a suture thread at both ends to prepare a reversed canal sac, and injected with about 0.5 ml of an internal sac solution containing 30 mM Tris-HCl buffer (pH7.4), 125 mM sodium chloride, 4 mM potassium chloride, 10 mM glucose and 1.25 mM calcium chloride (dihydrate) with a syringe and weighed. The resulting sac was immersed in an external sac solution (being bubbled with the gas consisting of 95% oxygen and 5% carbon dioxide) containing 50 mM, 100 mM or 200 mM of the same cyclic tetrasaccharide to Experiment 1 in the above solution containing 30 mM Tris-HCl buffer (pH7.4), 125 mM sodium chloride, 4 mM potassium chloride, 10 mM glucose and 1.25 mM calcium chloride (dihydrate). At 15 or 30 minutes after the immersion, the reversed canal sac was taken out from the solution and washed with distilled water. The internal sac solution was collected from the resulting sac and admixed with distilled water to give a final volume of 25 ml. The resulting solution was subjected to a calorimetric measurement of calcium content using “CALCIUM TEST C WAKO™” (commercialized by Wako Pure Chemicals Corporation, Osaka, Japan). As a negative control, an external sac solution without saccharides. As a positive control, an external sac solution containing 200 mM maltitol, reported to have the effect on promoting mineral absorption though intestinal canal, instead of cyclic tetrasaccharide were prepared and carried out in the same manner. Speed of calcium absorption (nmol/min·cm^2) and its relative values defining the value of negative control as 100 were calculated.
# [2] = tested on: reversed canal sac of intestinum ileum; assay: Calcium absorption in reversed canal sac, intestinum ileum; type: cell-based, Wister rats
# Description: as §1
# [3] = tested on: reversed canal sac of colon/rectum; assay: Calcium absorption in reversed canal sac, colon/rectum; type: cell-based, Wister rats
# Description: as §1
# [4] = feed supplemented with 1% cyclic tetrasaccharide
# [5] = feed supplemented with 2% cyclic tetrasaccharide
# [6] = feed supplemented with 5% cyclic tetrasaccharide
# [7] = 50 mM saccharide in external sac solution
# [8] = 100 mM saccharide in external sac solution
# [9] = 200 mM saccharide in external sac solution
structure (smiles),measurement,setting,value
"OC[C@H]1O[C@@H]2OC[C@H]3O[C@H](O[C@@H]4[C@@H](O)[C@@H](OC[C@H]5O[C@H](O[C@H]([C@H]2O)[C@@H]1O)[C@H](O)[C@@H](O)[C@@H]5O)O[C@H](CO)[C@H]4O)[C@H](O)[C@@H](O)[C@@H]3O [cyclic tetrasaccharide, cyclo{>6)-α-D-glucopyranosyl-(1>3)-α-D-glucopyranosyl-(1>6)-α-D-glucopyranosyl-(1>3)-α-D-glucopyranosyl-(1>}]","amounts of dried bone weight, ash, calcium, magnesium and phosphorus","femur; comparing with the control, 1%, 2%, 5% feeds",significantly increased
same,Amount of ash,femur; [4],0.64 * g/g dry femur
same,Amount of calcium in femur,femur; [4],217 * ^ mg/g dry femur
same,Amount of magnesium in femur,femur; [4],4.3 * mg/g dry femur
same,Amount of phosphorus in femur,femur; [4],115 * ^ mg/g dry femur
same,Dry weight of femur,femur; [4],0.68 * g
same,Amount of ash,femur; [5],0.65 * g/g dry femur
same,Amount of calcium in femur,femur; [5],225 * ^ mg/g dry femur
same,Amount of magnesium in femur,femur; [5],4.4 * mg/g dry femur
same,Amount of phosphorus in femur,femur; [5],116 * ^ mg/g dry femur
same,Dry weight of femur,femur; [5],0.71 * g
same,Amount of ash,femur; [6],0.66 * g/g dry femur
same,Amount of calcium in femur,femur; [6],240 * ^ mg/g dry femur
same,Amount of magnesium in femur,femur; [6],4.5 * mg/g dry femur
same,Amount of phosphorus in femur,femur; [6],118 * ^ mg/g dry femur
same,Dry weight of femur,femur; [6],0.71 * g
same,"Absorption speed of calcium in alimentary canal sac, Jejunum",[1]; [7],26.5 *※ nmol/min · cm^2
same,"Relative value of calcium absorption speed (control = 100), Jejunum",[1]; [7],(124)
same,"Absorption speed of calcium in alimentary canal sac, Jejunum",[1]; [8],37.6 *※ nmol/min · cm^2
same,"Relative value of calcium absorption speed (control = 100), Jejunum",[1]; [8],(176)
same,"Absorption speed of calcium in alimentary canal sac, Jejunum",[1]; [9],39.0 *※ nmol/min · cm^2
same,"Relative value of calcium absorption speed (control = 100), Jejunum",[1]; [9],(183)
same,promotion of calcium absorption in jejunum,[1]; reversed sac,strongly promoted
same,"Absorption speed of calcium in alimentary canal sac, Intestinum ileum",[2]; [7],33.6 *※ nmol/min · cm^2
same,"Relative value of calcium absorption speed (control = 100), Intestinum ileum",[2]; [7],(124)
same,"Absorption speed of calcium in alimentary canal sac, Intestinum ileum",[2]; [8],46.0 *※ nmol/min · cm^2
same,"Relative value of calcium absorption speed (control = 100), Intestinum ileum",[2]; [8],(167)
same,"Absorption speed of calcium in alimentary canal sac, Intestinum ileum",[2]; [9],52.9 *※ nmol/min · cm^2
same,"Relative value of calcium absorption speed (control = 100), Intestinum ileum",[2]; [9],(195)
same,promotion of calcium absorption in intestinum ileum,[2]; reversed sac,strongly promoted
same,"Absorption speed of calcium in alimentary canal sac, Colon/Rectum",[3]; [7],13.5 ※ nmol/min · cm^2
same,"Relative value of calcium absorption speed (control = 100), Colon/Rectum",[3]; [7],(101)
same,"Absorption speed of calcium in alimentary canal sac, Colon/Rectum",[3]; [8],14.6 *※ nmol/min · cm^2
same,"Relative value of calcium absorption speed (control = 100), Colon/Rectum",[3]; [8],(109)
same,"Absorption speed of calcium in alimentary canal sac, Colon/Rectum",[3]; [9],15.4 *※ nmol/min · cm^2
same,"Relative value of calcium absorption speed (control = 100), Colon/Rectum",[3]; [9],(116)
same,promotion of calcium absorption in colon/rectum,[3]; reversed sac,slightly
